Counter-ions that a name gives are not always drawn.
Columns and labels:
HeLa cells xenograft = test: Anti-cancer activity in vivo, cervical cancer xenograft; parameters: species or system BALB/c nude mice; conditions: for tumor size versus vehicle treated mice: HeLa xenograft, intratumoral once every 2 days, seven injections, OC 12 μg, Etopside 4 μg
Experimental: Four weeks old nude mice were engrafted with HeLa cells and observed until tumors reached ˜100 mm^3. Tumor-bearing mice were then treated vehicle, OC (12 μg) or Etopside (4 μg) […] by intratumoral once every 2 days for a total of seven injections. Mice were killed and tumors resected and weighed 2 days after the final injection.
Four-week-old BALB/c nude mice were purchased from the Experimental Animal
Center of Chinese Academy of Science (Shanghai, China) and kept in pathogen free environment at Experimental Animal Center in Shanghai University of Traditional Chinese Medicine. The mice have an average weight of 20 g. Approximately 2×10^6 HeLa cells were injected into the left and right sides of the animals. Two weeks later, 15 mice bearing tumors around 100 mm^3 in volume were randomly divided into vehicle control, etoposide (positive control) and oblongifolin C-treated groups. The mice were administered via intratumoral injection at the dose of 4 μg etopside or 12 μg OC in 200 μl solvent (0.05% DMSO, 0.05% Tween-80 in PBS) once every two days for two weeks. The tumor size was measured over a period of two weeks.

[1] = literature background; cited from earlier work
[2] = tested on: HeLa cells stably expressing GFP-LC3; test: Live cell imaging and colocalization analysis (GFP-LC3 / LysoTracker Red); type: cell-based; conditions: OC 15 μM or HCQ 50 μM, 8 hours, FIG. 11
Experimental: Live cell images of GFP-LC3 and LysoTracker Red were taken using Olympus confocal microscope. The enlarged images show the colocalization of two signals.
(§1) For lysotracker staining, HeLa or MEF cells grown on coverslips were stained with 50 nM Lysotracker Red DND-99 (Molecular Probes, Invitrogen, L7528) in pre-warmed medium for 20 min at 37° C. All of the samples were examined under an Olympus FV1000 confocal microscope (Olympus) equipped with a 63×oil immersion objective. The confocal images were acquired using FV10-ASW 2.0 software. Calculation of Pearson's correlation coefficient (PCC) was applied to quantify colocalization. PCC was calculated by FV10-ASW 2.0 software between the stack of images from two channels.

ECA109 cells [3] = test: Wound healing assay; type: cell-based, human; conditions: ECA109, 24 hours, FIG. 2
Experimental: (§2) Human esophageal cancer cell line ECA109 were maintained in RPMI1640 (Gibco/Invitrogen) supplemented with 10% fetal bovine serum (Invitrogen), 100 U/ml penicillin-streptomycin (Gibco/ Invitrogen, 15140-122), within a humidified atmosphere containing 5% CO2 at 37° C.
ECA109 cells were seeded on 12-well plates at a density of 1×10^5 cells/well. After the cells reached sub-confluence, the mono-layer cells were wounded by scraping off the cells and then grown in medium for 24 hours. The migrated distance of cells was monitored and imaged under a microscope.

ECA109 cells [4] = test: Transwell assay (cell migration); type: cell-based, human; conditions: ECA109, 24 hours, FIG. 3
Experimental: as §2
Cell migration was also determined using a transwell (Corning) with pore size of 8 μm. 5×10^4 cells that were seeded in serum-free medium in the upper chamber, while medium containing 10% FBS in the lower chamber. After incubating for 24 hours at 37° C., cells in the upper chamber were carefully removed with a cotton swab and the cells that had traversed to reverse face of the membrane were fixed in methanol, stained with Giemsa, and counted.

ECA109 cells [5] = test: Anti-invasion assay (Matrigel assay); type: cell-based, human; conditions: ECA109, 72 hr, FIG. 4
Experimental: as §2
Cell invasion was determined using Matrigel (BD) coated transwell (Corning) with pore size of 8 μm. 5×10^4 cells that were seeded in serum-free medium in the upper chamber, while medium containing 10% FBS in the lower chamber. After incubating for 72 hr at 37° C., cells in the upper chamber were carefully removed with a cotton swab and the cells that had traversed to reverse face of the membrane were fixed in methanol, stained with Giemsa, and counted.

HeLa-LC3-GFP cells = test: GFP-LC3 translocation and quantitative analyses; type: cell-based; conditions: OC 5, 10 and 20 μM, 24 hours, FIG. 5 and 6
Description: MEF, HeLa, CNE, HCT116, MCF7 and HepG2 cells were transfected with pEGFP-LC3 plasmid using lipofectamine 2000 (Invitrogen, 11668-019). […] Image acquisition was done using an Olympus FV1000 confocal microscope. The number of GFP-LC3 dots was counted from at least 150 cells from randomly placed positions within each sample.

[6] = tested on: human breast cancer cells (MCF7); test: GFP-LC3 translocation; type: cell-based; conditions: MCF7, 10 μM, 24 hours, FIG. 7
Experimental: (§3) MEF, HeLa, CNE, HCT116, MCF7 and HepG2 cells were transfected with pEGFP-LC3 plasmid using lipofectamine 2000 (Invitrogen, 11668-019). One day after transfection, cells were treated with 10 μM Oblongifolin C for 24 hours prior to fixation. Image acquisition was done using an Olympus FV1000 confocal microscope. The number of GFP-LC3 dots was counted from at least 150 cells from randomly placed positions within each sample.

[7] = tested on: human colon cancer cells (HCT116); test: GFP-LC3 translocation; type: cell-based; conditions: HCT116, 10 μM, 24 hours, FIG. 7
Experimental: as §3

[8] = tested on: human hepatocytes (HepG2); test: GFP-LC3 translocation; type: cell-based; conditions: HepG2, 10 μM, 24 hours, FIG. 7
Experimental: as §3

[9] = tested on: human nasopharyngeal cancer cells (CNE); test: GFP-LC3 translocation; type: cell-based; conditions: 10 μM, 24 hours, FIG. 7
Experimental: as §3

[10] = tested on: mouse embryonic fibroblast cells (MEF); test: GFP-LC3 translocation; type: cell-based; conditions: 10 μM, 24 hours, FIG. 7
Experimental: as §3

HeLa cells [11] = test: Western blot for endogenous LC3 / SQSTM1; type: cell-based
Experimental: (§4) GAPDH was used as a loading control. An image J densitometric analysis of the LC3-II/GAPDH ratio from LC3 immunoblots was shown.
(§5) Samples were analyzed by western blotting for endogenous SQSTM1 and GAPDH. An image J densitometric analysis of the SQSTM1/GAPDH ratio from immunoblots was shown.
(§6) Cells were lysed in ice-cold whole cell extract buffer (50 mM pH8.0 Tris-HCl, 4M urea and 1% TritonX-100), supplemented with complete protease inhibitor mixture (Roche Diagnostics, 04693132001). Cell extracts were resolved by SDS-PAGE gel electrophoresis and transferred to a nitrocellulose membrane. After blocking with 5% non-fat milk in Tris-buffered saline containing 0.2% Tween-20, the membranes were probed with the following antibodies: LC3B (sigma, L7543), SQSTM1/p62 (MBL, PM045), GAPDH (Proteintech, 10494-1-AP), CASP3 (Cell signaling, #9962). Following incubation with horseradish peroxidase coupled secondary anti-mouse (KPL, 074-1806) or anti-rabbit antibodies (KPL, 474-1506), protein bands were visualized using ECL Blotting Detection Reagents (KPL, 54-61-00).

MEF cells = test: Western blot for endogenous LC3 / SQSTM1; type: cell-based, mouse
Experimental: as §4, §5, §6

MEF = test: Live cell imaging and colocalization analysis (GFP-LC3 / LysoTracker Red); type: cell-based, mouse; conditions: OC 15 μM, 8 hours, FIG. 12
Experimental: The colocalization of GFP-LC3 and LysoTracker Red were analyzed by confocal microscopy. The enlarged images show the colocalization of two signals.
as §1

HeLa cells [12] = test: Flow cytometry (propidium iodide), complete vs nutrient-deprived medium; type: cell-based; conditions: OC 5 μM, EBSS vs DMEM, 24 hours, FIG. 13
Experimental: (§7) The cells were fixed and stained with propidium iodide (PI).
(§8) HeLa, HCT116, CNE, MCF7, MDA-MB-231, HepG2 and MEFs were maintained in Dulbecco's modified Eagle's medium (Gibco/Invitrogen, 12800-017) supplemented with 10% fetal bovine serum 100U/m1 penicillin-streptomycin (Gibco/ Invitrogen, 15140-122) at 37° C. in a humidified 5% CO2 incubator. For nutrient starvation, HeLa or CNE cells cultured in DMEM were washed three times with PBS, then cultured in Earle's Balanced Salt Solution (EBSS, Sigma, E6132) for indicated time point.
(§9) Cells were treated with Oblongifolin C then cultured in complete (DMEM with serum) or nutrient deprived medium (EBSS) for 24 hours. The cells were fixed in 70% ethanol in PBS overnight. For cell cycle distribution, cells were counterstained with propidium iodide and analyzed for DNA content by use of a BD Influx™ flow cytometer.

CNE cells = test: as above; type: cell-based, human; conditions: OC 5 μM, EBSS vs DMEM, 24 hours, FIG. 13
Experimental: as §7, §8, §9

HeLa cells [13] = test: Western blot for cleaved Caspase 3 in DMEM or EBSS medium; type: cell-based; conditions: DMEM and EBSS, 24 hours, FIG. 14
Experimental: Samples were analyzed by western blotting for cleaved Caspase 3, LC3 and SQSTM1. GAPDH was used as a loading control.
as §6, §9

[14] = tested on: lysosomal proteolytic activity; test: Lysosomal proteolytic activity / autophagic flux; type: cell-based
[15] = tested on: human colorectal cancer cell lines; conditions: previous studies (Feng et al. 2012; Huang et al. 2009); cited from earlier work

COc1cc([C@@H]2c3cc4c(cc3[C@@H](O[C@@H]3O[C@@H]5CO[C@@H](C)O[C@H]5[C@H](O)[C@H]3O)[C@H]3COC(=O)[C@H]23)OCO4)cc(OC)c1O [Etop, etoposide, reference compound]
tumor size versus vehicle treated mice (HeLa cells xenograft): smaller than those of vehicle treated mice

CC(C)=CCC[C@]1(C)C=Cc2c(O)c3c(c(CC=C(C)C)c2O1)O[C@]12C(=C[C@@H]4C[C@H]1C(C)(C)O[C@@]2(C/C=C(/C)C(=O)O)C4=O)C3=O [GA, gambogic acid]
toxicity [1]: induces toxicity to the liver and kidney

CCN(CCO)CCCC(C)Nc1ccnc2cc(Cl)ccc12 (centres unmarked) [HCQ, hydroxychloroquine sulfate, reference compound]
autophagosome-lysosome fusion (colocalization of GFP-LC3 and LysoTracker Red) [2]: block autophagosome-lysosome fusion

CC(C)=CCC/C(C)=C/C[C@@H]1C[C@]2(CC=C(C)C)C(=O)[C@@](CC=C(C)C)(C(=O)C(C(=O)c3ccc(O)c(O)c3)=C2O)[C@@]1(C)CCC=C(C)C [Oblongifolin C]
wound healing (migrated distance of cells) (ECA109 cells [3]): suppressed the wound healing in a concentration dependent manner | cell migration through transwell (ECA109 cells [4]): suppress ECA109 cells migration through transwell at concentration dependent manner | cell invasion through matrigel (ECA109 cells [5]): suppress ECA109 cells invasion through matrigel at a concentration dependent manner | GFP-LC3 puncta formation (HeLa-LC3-GFP cells): could regulate GFP-LC3 puncta formation at concentration dependent manner | GFP-LC3 puncta formation [6]: could regulate GFP-LC3 puncta formation | GFP-LC3 puncta formation [7]: could regulate GFP-LC3 puncta formation | GFP-LC3 puncta formation [8]: could regulate GFP-LC3 puncta formation | GFP-LC3 puncta formation [9]: could regulate GFP-LC3 puncta formation | GFP-LC3 puncta formation [10]: could regulate GFP-LC3 puncta formation | amount of LC3-II protein (FIG. 10; autophagic flux) (HeLa cells [11]; OC 15 μM over a time period, FIG. 10): increase the amount of LC3-II protein in a time-dependent manner | amount of LC3-II protein (time dependence) (HeLa cells [11]; OC 15 μM, 0, 4, 8, 12 and 24 hours, FIG. 9): increase the amount of LC3-II protein in a time-dependent manner | amount of LC3-II protein (dose dependence) (HeLa cells [11]; OC 2, 5, 10 and 25 μM, 24 hours, FIG. 8): increase the amount of LC3-II protein in a dose-dependent manner | amount of LC3-II protein (time dependence) (MEF cells; MEF, OC 15 μM, 0, 4, 8, 12 and 24 hours, FIG. 9): increase the amount of LC3-II protein in a time-dependent manner | amount of LC3-II protein (dose dependence) (MEF cells; MEF, OC 2, 5, 10 and 25 μM, 24 hours, FIG. 8): increase the amount of LC3-II protein in a dose-dependent manner | amount of LC3-II protein (FIG. 10; autophagic flux) (MEF cells; MEFs, OC 15 μM over a time period, FIG. 10): increase the amount of LC3-II protein in a time-dependent manner | autophagosome-lysosome fusion (colocalization of GFP-LC3 and LysoTracker Red) [2]: block autophagosome-lysosome fusion | autophagosome-lysosome fusion (colocalization of GFP-LC3 and LysoTracker Red) (MEF): block autophagosome-lysosome fusion | apoptosis of nutrient-deprived cancer cells (HeLa cells [12]): sensitizes nutrient-deprived cancer cells to apoptosis | apoptosis of nutrient-deprived cancer cells (CNE cells): sensitizes nutrient-deprived cancer cells to apoptosis | Caspase 3 cleavage (HeLa cells [13]): resulted in Caspase 3 and cleavage in concentration-dependent manner | anticancer effect in cervical cancer xenograft (HeLa cells xenograft; 12 μg OC intratumoral once every two days for two weeks, FIG. 15): anticancer effect similar to etopside | tumor size versus vehicle treated mice (HeLa cells xenograft): smaller than those of vehicle treated mice | effective dosage for mouse (HeLa cells xenograft; based on 12 μg given to 20 g mouse): 0.6 mg/kg | tumor markers in cervical cancer xenograft mouse model (Caspase 3, LC3, SQSTM1, lysosomal cathepsins) (HeLa cells xenograft; cervical cancer xenograft mouse model): increased Casepse 3 cleavage, LC3 and SQSTM1 accumulation, and reduced expression of lysosomal cathepsins | autophagic flux and lysosomal proteolytic activity [14]: blocks both autophagic flux and lysosomal proteolytic activity | relative potency among PPAP compounds [15]: most potent PPAP compound
